Assay results published in article PMC5000617, “Antiproliferative and Pro-Apoptotic Effect of Novel Nitro-Substituted Hydroxynaphthanilides on Human Cancer Cell Lines” (International Journal of Molecular Sciences, 2016).

Tests used:
MCF-7 cells [1] = experiment: WST-1 cell proliferation assay, MCF-7; assay type: cell-based, human
Procedure: Initially, we examined the effect of six nitro-substituted hydroxynaphthanilides on the proliferation of human leukaemia and breast carcinoma cell lines, using Water Soluble Tetrazolium Salts-1 (WST-1) assay. For such analyses, THP-1 and MCF-7 cells were treated with the compounds at concentrations ranging from 0.5 to 20 μM for 24 h. […] The inhibitory effect of 2 and 6 was statistically significant (p < 0.001) starting from the concentration of 2.5 and 5 μM in THP-1 and MCF-7 cells, respectively. From the concentration-response curves, the IC50 values were determined.
(§1) THP-1 human monocytic leukemia cell line, MCF-7 human breast adenocarcinoma cells and 3T3-L1 mouse embryonic fibroblast were purchased from the European Collection of Cell Cultures (ECACC, Salisbury, UK). Cells were routinely tested for the absence of mycoplasma (Hoechst 33258 staining method). THP-1 cells were maintained in RPMI 1640 culture medium containing 2 mM L-glutamine; MCF-7 and 3T3-L1 cells were cultured in DMEM medium. All of the culture media were supplemented with 10% heat-inactivated FBS and antibiotics (100 U/mL penicillin and 100 μg/mL streptomycin). Cells were maintained at 37 °C in a humidified atmosphere containing 5% CO2.
(§2) Cell proliferation was evaluated using Cell Proliferation Reagent WST-1 (2-(4-iodophenyl)-3-(4-nitrophenyl)-5-(2,4-disulfophenyl)-2H-tetrazolium) (Roche Diagnostics, Mannheim, Germany) according to the manufacturer´s instructions. THP-1 (5 × 10^4 cells/100 μL culture medium per well), MCF-7 cells (1 × 10^4 cells/100 μL per well), and 3T3-L1 (2.5 × 10^3 cells/100 μL per well) were cultured in 96-well plates in triplicate. The measurement was performed using Synergy 2 Multi-Mode Microplate Reader (BioTek, Winooski, VT, USA) after 24 h incubation of cells with tested compounds dissolved in DMSO and subsequently in RPMI 1640 to final concentration ranging 0.5–20 μM in the assays. Cell viability was assessed by dye exclusion test. THP-1 (2 × 10^5 cells/mL per well) and MCF-7 cells (8 × 10^4 cells/mL per well) were incubated in 24-well plates with the indicated concentrations of compounds for 24 h. The number of viable cells was determined using hemocytometer after their staining with a solution of erythrosin B (0.1% erythrosin B (w/v) in PBS). The assays were conducted in triplicate. The IC50 and LC50 values were calculated from fitted concentration-response curves using GraphPad Prism 5.00 software (GraphPad Software, San Diego, CA, USA).

[2] = Erythrosin B dye exclusion viability test, MCF-7; assay type: cell-based; details: human, MCF-7 cells; erythrosin B exclusion test, 24 h, mean ± SD; read-out: MCF-7 LC50
Procedure: (§3) Subsequently, for the comparison of the antiproliferative and cytotoxic effects we assessed the cell viability after 24 h treatment with compounds 1–6 in both tumour cell lines using the dye exclusion test.
as §1, §2

MCF-7 cells [3] = experiment: Erythrosin B dye exclusion viability test, MCF-7; assay type: cell-based; details: MCF-7, 24 h, vs control
Procedure: as §3, §1, §2

THP-1 cells = experiment: Flow cytometric cell cycle analysis (PI), THP-1; assay type: cell-based, human
Procedure: In order to determine at which stage of the cell cycle these compounds induce cell growth inhibition, flow cytometric analyses of cell cycle profiles in THP-1 and MCF-7 cell lines were performed. […] Therefore, THP-1 and MCF-7 cells were treated for 24 h with the compounds at concentrations of 2.5, 5, and 10 μM, respectively. In general, we detected a qualitatively similar effect on the distribution of cells in cell cycle phases following the treatment with compounds 2 and 6 in both leukaemia and breast carcinoma cells. […] This was in concert with a simultaneous decrease in the number of cells observed in the S phase compared to the drug-free control, while the percentage of cells in the G2/M phase remained unchanged.
THP-1 and sub-confluent MCF-7 cells were treated and subsequently incubated with indicated concentrations of compounds 2 and 6 for 24 h. After the incubation, cells were washed twice in PBS (pH 7.4), fixed in 70% ethanol and stored at −20 °C overnight. Fixed cells were collected by centrifugation, and supernatant was discarded. The cell pellet was washed twice with PBS and incubated with RNaseA (0.02 mg/mL) and 0.05% (v/v) Triton X-100 in PBS for 30 min at 37 °C. After the nuclei staining with propidium iodide (PI) (0.04 mg/mL), the cell cycle distribution was analysed using a flow cytometer Cell Lab Quanta SC (Beckman Coulter, Brea, CA, USA). The quantification of cell cycle distribution was carried out using software MultiCycle AV (Phoenix Flow System, San Diego, CA, USA). A total number of 2 × 10^4 cells was analysed per sample.

cyclin E1 [4] = experiment: Western blot of cyclin E1 in THP-1 cells; assay type: cell-based, human; details: THP-1, 24 h
Procedure: (§4) Additionally, the cell cycle analysis allows determining the presence of a subdiploid cell population as a characteristic marker of cells with fractional DNA content. A significant increase (p < 0.001) of the sub-G1 peak was found only after the treatment with 5 µM of compound 2 in THP-1 cells, where an approximately eight-fold increase was observed compared to the drug-free control (Figure 4).
(§5) For Western blotting, cells were washed with PBS and lysed in lysis buffer (100 mM Tris-HCl, pH = 6.8; 20% glycerol; 1% SDS) containing protease and phosphatase inhibitor cocktails. Protein concentration was measured using Roti®-Quant universal (Carl Roth, Karsruhe, Germany) according to the manufacturer’s instructions. Cell lysates were supplemented with bromophenol blue (final concentration 0.01% (w/v)) and β-mercaptoethanol (final concentration 1% (v/v)) prior to being heated for 5 min at 95 °C. Equal amounts of protein (10 μg) were loaded into a 12% polyacrylamide gel, separated by SDS-polyacrylamide gel electrophoresis and subsequently electrotransferred onto nitrocellulose membranes. Reversible Ponceau S. staining was performed to assess equal sample loading. Then, the membranes were blocked with 5% non-fat dry milk in TBST (10 mM Tris-HCl pH = 7.5, 150 mM NaCl, 0.1% (v/v) Tween-20) and appropriate primary and secondary antibodies were used for immunodetection. The proteins were visualized by ECL Plus reagent according to the manufacturer’s instructions. The intensity of bands was semi-quantitatively analysed using the ImageJ software (National Institute of Mental Health, Bethesda, MD, USA).

cyclin E1 [5] = experiment: Western blot of cyclin E1 in MCF-7 cells; assay type: cell-based, human; details: MCF-7, 24 h
Procedure: as §4
as §5, with “Then, the membranes were blocked with 5% non-fat dry milk in TBST (10 mM Tris-HCl pH = 7.5, 150 mM NaCl, 0.1% (v/v) Tween-20) and appropriate primary and secondary antibodies were used for immunodetection. The proteins were visualized by ECL Plus reagent according to the manufacturer’s instructions.” left out

cyclin B1 = experiment: Western blot of cyclin B1 in THP-1 cells; assay type: cell-based, human; details: THP-1, 24 h
Procedure: as §4
as §5, with “Then, the membranes were blocked with 5% non-fat dry milk in TBST (10 mM Tris-HCl pH = 7.5, 150 mM NaCl, 0.1% (v/v) Tween-20) and appropriate primary and secondary antibodies were used for immunodetection. The proteins were visualized by ECL Plus reagent according to the manufacturer’s instructions.” left out

With `O=C(Nc1cccc([N+](=O)[O-])c1)c1cc2ccccc2cc1O` [Compound 2, 3-hydroxy-N-(3-nitrophenyl)naphthalene-2-carboxamide] the IC50 (MCF-7 cells [1]; Homo sapiens, MCF7, WST-1, 24 h, 0.5-20 μM, mean ± SD) was 4.61 ± 0.068 µM, the “effect on cell proliferation” value (MCF-7 cells [1]; MCF-7, 0.5-20 μM, 24 h) was “inhibit cell growth in both cell lines in a dose-dependent manner” and the “concentration from which the inhibitory effect on proliferation was statistically significant (p < 0.001)” value (MCF-7 cells [1]; MCF-7, 24 h) was 5 µM. The CC50 at 24 h [2] was greater than 20 µM, the “effect on cell viability” value (MCF-7 cells [3]) was “Neither compound 2 nor 6 reduced cell viability under 50%” and the “increase of sub-G1 peak compared to drug-free control” value (THP-1 cells; THP-1, 5 µM, 24 h, p < 0.001) was “approximately eight-fold”. The “distribution of cells in cell cycle phases” value (THP-1 cells; THP-1, 24 h) was “induced accumulation of cells in G1 phase”, the “expression of cyclin E1” value (cyclin E1 [4]) was “dose-dependent decrease in expression of cyclin E1” and the “levels of cyclin E1 low molecular weight (LMW E1) isoform” value (cyclin E1 [4]) was “more pronounced reduction of LMW E1 isoform levels”. For the same compound, the “expression of cyclin E1” value (cyclin E1 [5]) was “dose-dependent decrease in expression of cyclin E1” and the “total protein levels of cyclin B1” value (cyclin B1) was “total protein levels of cyclin B1 were not changed”.
